These results are taken from the Deep4Chem optical property database.

This series can be described thus: solvent given as SMILES.

For `CCCCCCC(CCCCCC)n1c(=O)c2c3ccc4cccc5c6cccc7ccc(c2c1=O)c(c76)c3c45`, the emission maximum is 471 nm (in C1CCCCC1); 527 nm (in CC#N); 514 nm (in CC(C)=O); 469 nm (in CCCCCC); 550 nm (in CCO); 495 nm (in CCOCC). Moreover, the emission maximum came to 534 nm (in CS(C)=O), 491 nm (in Cc1ccccc1), 482 nm (in ClC(Cl)(Cl)Cl) and 522 nm (in ClC(Cl)Cl).

`Cc1cc2cc(N3c4ccccc4Oc4ccccc43)ccc2c(=O)o1`: the emission maximum (in Cc1ccccc1) came out at 540 nm.

The compound `C1=CN2C[n+]3cccc(OCc4ccccc4)c3N=C2C(OCc2ccccc2)=C1` came in with an emission maximum (in CO) of 487 nm.

Consider `CN(C)c1ncc2nc(C#N)n(Cc3ccccc3)c2n1`, for which the emission maximum was 424 nm (in C1COCCO1), 440 nm (in CC#N), 456 nm (in CO) and 429 nm (in ClCCl).

`c1ccc(-n2c(-c3ccc(N(c4ccc(-c5ccc(N(c6ccc(-c7nc8c9ccccc9c9ccccc9c8n7-c7ccccc7)cc6)c6ccc(-c7nc8c9ccccc9c9ccccc9c8n7-c7ccccc7)cc6)cc5)cc4)c4ccc(-c5nc6c7ccccc7c7ccccc7c6n5-c5ccccc5)cc4)cc3)nc3c4ccccc4c4ccccc4c32)cc1`: the emission maximum (in ClCCl) was determined as 432 nm.

Turning to `Nc1ccc2ccc3cccc4ccc1c2c34`, the emission maximum by setting is: (in CC#N) 425 nm; (in CCCCOCCCC) 417 nm; (in CO) 428 nm.

Under “in ClCCl”, `c1ccc(-c2c3ccccc3c(-c3ccc(-c4cccnc4)cc3)c3ccccc23)cc1` came in with an emission maximum of 417 nm.

Turning to `Cc1ccc(S(=O)(=O)Nc2cc(-c3ccc(N(C)C)cc3)sc2/C=C/c2ccccc2)cc1`, the emission maximum (in CC#N) amounted to 604 nm.

Turning to `CN(C)c1cc(-c2ccc(C#Cc3ccncc3)cc2)cc2ccccc12`, the emission maximum is given as 417.83 nm (in CC#N), 411.74 nm (in CCO) and 536 nm (in ClCCl).

As to `c1ccc2nc(-n3c4ccccc4c4ccccc43)c(-n3c4ccccc4c4ccccc43)nc2c1`, the emission maximum turned out to be 516.79 nm (in C1CCOC1), 467.18 nm (in CCCCCC) and 503 nm (in Cc1ccccc1).

Under “in CN(C)C=O”, `CCCCCCCCCCCCCCCCCCN1C(=O)c2ccc3c4ccc5c6c(ccc(c7ccc(c2c37)C1=O)c64)C(=O)N(CCCCCCCCCCCCCCCCCC)C5=O` showed an emission maximum of 535 nm.

As for `Nc1ccc(C#Cc2ccc3ccc4ccc(C#Cc5ccc(N)cc5)c5ccc2c3c45)cc1`, the emission maximum is, setting by setting: (in C1COCCO1) 476 nm; (in CC(C)=O) 538 nm; (in CCCCCC) 444 nm; (in CCCCCCO) 534 nm; (in CCO) 540 nm; (in CCOC(C)=O) 506 nm. In addition, the emission maximum was determined as 557 nm (in CO), 463 nm (in Cc1ccccc1) and 492 nm (in ClCCl).

In the case of `C[N+]1=c2cc3c(cc2C(C)(C)CC1)=C(c1ccccc1C(=O)O)c1cc2c(cc1O3)Oc1cc3c(cc1=C2c1ccccc1C(=O)O)C(C)(C)CC[N+]=3C`, the emission maximum (in ClC(Cl)Cl) turned out to be 612 nm.

`CCN(CC)c1ccc2cc(/C=C/C3=CC(/C=C/c4cc5ccc(N(CC)CC)cc5oc4=O)=[O+][B-](F)(F)O3)c(=O)oc2c1`: the emission maximum by setting is: (in CC#N) 725 nm; (in CC(C)=O) 710 nm; (in CCOC(C)=O) 659 nm; (in CN(C)C=O) 729 nm; (in CS(C)=O) 741 nm; (in Cc1ccccc1) 626 nm. Further, the emission maximum was found to be 669 nm (in ClC(Cl)Cl) and 705 nm (in ClCCl).

Under “in ClC(Cl)Cl”, `Cc1cccc(C)c1-c1cc2c(C)c3c4cc5nc6cc7c(cc6nc5cc4c3c(C)c2cc1-c1c(C)cccc1C)c1c(C)c2cc(-c3c(C)cccc3C)c(-c3c(C)cccc3C)cc2c(C)c71` yielded an emission maximum of 523 nm.
